In ChEMBL document CHEMBL1201862, “PubChem BioAssay data set” (2004):
Calls of active or inactive are those of the source.

How the values were obtained:
[1] = target: Glucose-6-phosphate 1-dehydrogenase (Homo sapiens, UniProt P11413); experiment: human G6PD enzyme inhibitors, dose response, selectivity assay for P. falciparum G6PD inhibitor project, biochemical, fluorescence (AID 504792); format: functional
[2] = target: Heat shock protein HSP 90-alpha (Homo sapiens, UniProt P07900); format: functional, organism-based
A-375 [3] = experiment: MITF: Counter assay: A375 proliferation Measured in Cell-Based System Using Plate Reader - 2084-03_Inhibitor_Dose_DryPowder_Activity. [Related pubchem assays (depositor defined):AID488944]; format: functional; settings: Homo sapiens
P388/ADR = experiment: cells; format: functional; settings: Mus musculus
P388 = experiment: cells; format: functional; settings: Mus musculus
SN12K1 = experiment: cells; format: functional; settings: Homo sapiens
[4] = target: T1, Microphthalmia-associated transcription factor (Homo sapiens, UniProt O75030); experiment: TRPM1 promoter luciferase signal decrease, dose response, MITF inhibitor project, cell-based, SK-MEL-5, cherry-picked, set 3 (AID 493073); format: functional
T1 sequence (O75030 whole entry): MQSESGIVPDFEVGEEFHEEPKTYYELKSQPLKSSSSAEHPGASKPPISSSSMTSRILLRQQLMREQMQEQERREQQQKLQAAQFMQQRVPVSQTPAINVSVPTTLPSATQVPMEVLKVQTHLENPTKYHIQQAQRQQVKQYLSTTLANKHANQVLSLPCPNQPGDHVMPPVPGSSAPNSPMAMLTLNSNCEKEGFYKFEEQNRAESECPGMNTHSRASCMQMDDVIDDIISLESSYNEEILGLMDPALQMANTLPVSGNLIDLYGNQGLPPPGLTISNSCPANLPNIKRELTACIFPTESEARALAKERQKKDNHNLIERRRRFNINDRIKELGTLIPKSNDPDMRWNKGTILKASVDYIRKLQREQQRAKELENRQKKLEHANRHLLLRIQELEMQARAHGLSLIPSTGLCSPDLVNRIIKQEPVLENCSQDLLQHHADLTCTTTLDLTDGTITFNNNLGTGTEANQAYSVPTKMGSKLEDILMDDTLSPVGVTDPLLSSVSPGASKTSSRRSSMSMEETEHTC

A-375 [5] = experiment: A375 melanoma cell viability reduction, dose response, counter-screen for MITF modulator project, cherry-pick samples, set 2 (AID 540335); format: functional, cell-based; settings: Homo sapiens
[6] = inhibitors of Trypanosoma cruzi host-cell infection, confirmation, beta-gal luminescence, NIH3T3 host cells (AID 2630); format: functional, cell-based; settings: Mus musculus
[7] = inhibitors of HIV Env-driven cell fusion, dose response, cherry-pick (AID 652057); format: functional, cell-based
Jurkat = experiment: antigen receptor-induced NF-kB inhibitors, dose response, Jurkat, luciferase reporter, luminescence, B- and T-cell (AID 489004); format: functional, cell-based; settings: Homo sapiens;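 note: NF-kB luciferase reporter Jurkat cells stimulated with PMA plus ionomycin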
[8] = target: Dual specificity tyrosine-phosphorylation-regulated kinase 1A (Rattus norvegicus, UniProt Q63470); format: biochemical, Homo sapiens
[9] = inhibitors of clade B AD8 Env fusion, dose response, cell-based, cherry-pick (AID 652062); format: functional;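 note: luciferase signal from cell-cell fusion driven by HIV-1 clade B AD8 Env; potency is for inhibitors of fusion seen as a drop in luminescence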
[10] = cytotoxicity in HEK-293T NF-kB-Luc cells, dose response, cytotoxicity control for B/T-cell NF-kB inhibitor project, cell-based, uHTS hits (AID 489019); format: functional;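 note: IC50 reflects cytotoxicity as loss of cell viability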
[11] = off-target signal loss in HeLa-CEM21 co-culture – HeLa F-luc CTL cells, cherry-picked, counter-screen for HIV-1 Env fusion inhibitor project, dose response (AID 652040); format: functional, cell-based;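 note: potency for signal decrease marking cytotoxic or nonspecific inhibition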
[12] = MC4R antagonists, dose response, counter-screen for LGR2 antagonist project, cell-based, plate reader, cherry pick (AID 743444); format: functional;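 note: transfected HEK 293 cells stimulated with alpha-MSH peptide; potency of inhibitors of the alpha-MSH evoked signal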
[13] = ZM109 Env clade C HIV-1 fusion inhibitors, dose response, HeLa effector, CEM target cells, luciferase, cherry-pick (AID 652058); format: functional, cell-based
[14] = target: T2, Ubiquitin-conjugating enzyme E2 N (Homo sapiens, UniProt P61088); format: functional
T2 sequence (P61088 whole entry): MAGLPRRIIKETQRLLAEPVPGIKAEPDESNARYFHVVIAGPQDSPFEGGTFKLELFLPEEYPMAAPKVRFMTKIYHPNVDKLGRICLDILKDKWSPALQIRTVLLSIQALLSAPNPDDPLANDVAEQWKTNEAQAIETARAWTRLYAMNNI

[15] = target: T3, Rac GTPase-activating protein 1 (Homo sapiens, UniProt Q9H0H5); experiment: MgcRacGAP GTPase-activating activity inhibitors, confirmation, biochemical, ADP Hunter fluorescence, primary and confirmatory (AID 624330); format: functional
T3 sequence (Q9H0H5 whole entry): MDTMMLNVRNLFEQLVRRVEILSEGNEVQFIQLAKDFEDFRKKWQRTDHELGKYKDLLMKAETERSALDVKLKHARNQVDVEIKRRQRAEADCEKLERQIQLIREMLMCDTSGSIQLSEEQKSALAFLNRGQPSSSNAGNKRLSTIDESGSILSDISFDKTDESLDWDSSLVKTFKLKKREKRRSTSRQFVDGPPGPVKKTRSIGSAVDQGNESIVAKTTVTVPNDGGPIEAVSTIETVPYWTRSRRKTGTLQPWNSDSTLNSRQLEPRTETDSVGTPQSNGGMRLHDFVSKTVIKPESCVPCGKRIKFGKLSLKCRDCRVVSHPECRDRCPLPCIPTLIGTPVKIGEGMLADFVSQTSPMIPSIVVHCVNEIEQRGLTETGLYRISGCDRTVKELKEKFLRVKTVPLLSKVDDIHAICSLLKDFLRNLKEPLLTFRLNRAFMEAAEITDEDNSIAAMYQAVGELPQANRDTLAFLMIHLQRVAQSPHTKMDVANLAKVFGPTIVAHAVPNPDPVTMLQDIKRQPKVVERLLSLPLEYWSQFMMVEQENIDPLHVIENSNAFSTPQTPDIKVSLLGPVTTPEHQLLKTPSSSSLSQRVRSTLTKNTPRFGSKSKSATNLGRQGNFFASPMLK

[16] = target: T4, Small ubiquitin-related modifier 1 (Homo sapiens, UniProt P63165); experiment: inhibitors of SUMO1 partner interactions, dose response, biochemical, FRET (AID 624383); format: functional; settings: read-out: IC50_Mean
[17] = target: T4, Small ubiquitin-related modifier 1; experiment: inhibitors of SUMO1 peptide binding, dose response, biochemical, fluorescence polarization, uHTS hits (AID 624382); format: functional; settings: read-out: IC50_Mean
Bcl-2-related protein A1 = target: T5, Bcl-2-related protein A1 (Mus musculus, UniProt Q07440); format: functional;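 note: confirmatory dose–response counterscreen on Bfl-1, used to check hits from a UBC13 polyubiquitin inhibitor campaign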
T5 sequence (Q07440 whole entry): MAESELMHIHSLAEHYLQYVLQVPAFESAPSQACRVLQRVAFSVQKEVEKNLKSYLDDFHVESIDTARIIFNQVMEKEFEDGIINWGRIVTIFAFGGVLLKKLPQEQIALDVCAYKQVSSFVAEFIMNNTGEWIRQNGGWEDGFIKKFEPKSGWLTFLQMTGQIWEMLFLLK

[18] = target: T2, Ubiquitin-conjugating enzyme E2 N; format: functional; remark: listed apart in the source
Escherichia coli [19] = experiment: microbe, parasite or virus in culture
Vero [20] = experiment: cells; format: functional; settings: Chlorocebus sabaeus
[21] = HepG2 cell cytotoxicity, dose response, cytotoxicity control for non-replicating M. tuberculosis project (AID 489018); format: functional; settings: Mycobacterium tuberculosis
Vero [22] = experiment: cells; format: functional, cell-based; settings: Chlorocebus sabaeus
[23] = Vero E6 cell cytotoxicity, dose response, cytotoxicity control for non-replicating M. tuberculosis project, secondary assay (AID 492998); format: functional, VeroE6; settings: Vero C1008
[24] = target: T6, Short transient receptor potential channel 4 (Mus musculus, UniProt Q9QUQ5); experiment: mouse TRPC4 channel activators, dose response, cell-based, HEK293 TRPC4/mu-opioid, Fluo-4 calcium (AID 434937); format: functional
T6 sequence (Q9QUQ5 whole entry): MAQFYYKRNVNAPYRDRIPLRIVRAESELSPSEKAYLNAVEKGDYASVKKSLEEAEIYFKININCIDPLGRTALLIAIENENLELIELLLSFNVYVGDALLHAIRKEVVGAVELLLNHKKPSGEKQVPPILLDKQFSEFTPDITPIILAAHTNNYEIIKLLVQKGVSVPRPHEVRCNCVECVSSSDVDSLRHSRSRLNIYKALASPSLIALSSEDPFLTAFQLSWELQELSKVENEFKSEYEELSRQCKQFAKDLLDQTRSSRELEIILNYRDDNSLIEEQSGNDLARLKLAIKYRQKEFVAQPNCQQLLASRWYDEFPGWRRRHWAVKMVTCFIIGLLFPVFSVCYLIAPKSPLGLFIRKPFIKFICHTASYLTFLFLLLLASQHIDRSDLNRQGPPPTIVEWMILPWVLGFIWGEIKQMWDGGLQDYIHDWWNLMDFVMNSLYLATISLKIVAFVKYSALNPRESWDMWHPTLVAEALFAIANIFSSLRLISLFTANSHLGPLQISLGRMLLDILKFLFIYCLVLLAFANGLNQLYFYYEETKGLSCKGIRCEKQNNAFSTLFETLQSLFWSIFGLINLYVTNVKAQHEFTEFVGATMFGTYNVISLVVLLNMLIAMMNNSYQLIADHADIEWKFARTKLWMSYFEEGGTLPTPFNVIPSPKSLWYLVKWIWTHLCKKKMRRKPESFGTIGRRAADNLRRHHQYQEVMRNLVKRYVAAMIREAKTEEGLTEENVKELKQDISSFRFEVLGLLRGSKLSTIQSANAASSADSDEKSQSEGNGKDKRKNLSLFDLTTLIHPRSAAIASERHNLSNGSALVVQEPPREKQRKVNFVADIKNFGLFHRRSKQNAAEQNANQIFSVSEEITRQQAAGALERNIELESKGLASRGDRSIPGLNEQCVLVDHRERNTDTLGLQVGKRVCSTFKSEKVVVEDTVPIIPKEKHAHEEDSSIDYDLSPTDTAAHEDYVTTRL

[25] = THP-1 cell cytotoxicity, dose response, cytotoxicity control for non-replicating M. tuberculosis project (AID 489025); format: functional
cells = format: functional
[26] = human group III sPLA2 inhibitors, dose response, biochemical, QFRET, IC50 (AID 743457);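 note: green fluorescence rise as the enzyme cleaves BODIPY PC-A2 in liposomes; potency for inhibition of the enzyme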
Streptococcus = experiment: Group A Streptococcus viability loss, dose response, counter-screen for streptokinase expression inhibitor project, luminescence, BacTiterGlo (AID 1915); format: functional, organism-based;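 note: potency for reduction of bacterial viability or growth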
[27] = system: Streptococcus sp. 'group A'; experiment: growth inhibition of control SK(-) GAS strain, dose response, counter-screen for streptokinase expression inhibitor project, luminescence, kanamycin, BacTiterGlo, confirmation (AID 1900); format: functional, organism-based
Escherichia coli [28] = experiment: microbe, parasite or virus in culture; remark: listed apart in the source
[29] = growth suppression of PTEN-null colon cells, dose response, cell-based, HCT116 PTEN knockout (AID 1047); format: functional;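 note: HCT116 colon tumor cells with PTEN knocked out; cells exposed to compound for 60 hours before readout; potency for loss of cell viability measured by luminescence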
[30] = HEp-2 cell cytotoxicity, dose response, cytotoxicity control for RSV inhibitor project, HTS (AID 2410); format: functional; settings: human respiratory syncytial virus
HEK293 [31] = experiment: cells; settings: Homo sapiens
[32] = growth suppression of beta-catenin-knockout colon cells, dose response, cell-based, HCT116, human colon tumor (AID 1045); format: functional;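 note: HCT116 colon tumor cells with beta catenin knocked out; cells exposed to compound for 60 hours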
[33] = cytotoxicity in HEK-293T cells, dose response, cytotoxicity control for BCR NF-kB inhibitor project, luminescence, B-cell screen hits (AID 489021); format: functional, cell-based;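 note: HEK-293T cells carrying an NF-kB luciferase reporter; cells exposed to compound for about 14 hours before viability readout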
HEK293 [34] = experiment: cells; settings: Homo sapiens; remark: listed apart in the source

Sequence of Glucose-6-phosphate 1-dehydrogenase (P11413 whole entry): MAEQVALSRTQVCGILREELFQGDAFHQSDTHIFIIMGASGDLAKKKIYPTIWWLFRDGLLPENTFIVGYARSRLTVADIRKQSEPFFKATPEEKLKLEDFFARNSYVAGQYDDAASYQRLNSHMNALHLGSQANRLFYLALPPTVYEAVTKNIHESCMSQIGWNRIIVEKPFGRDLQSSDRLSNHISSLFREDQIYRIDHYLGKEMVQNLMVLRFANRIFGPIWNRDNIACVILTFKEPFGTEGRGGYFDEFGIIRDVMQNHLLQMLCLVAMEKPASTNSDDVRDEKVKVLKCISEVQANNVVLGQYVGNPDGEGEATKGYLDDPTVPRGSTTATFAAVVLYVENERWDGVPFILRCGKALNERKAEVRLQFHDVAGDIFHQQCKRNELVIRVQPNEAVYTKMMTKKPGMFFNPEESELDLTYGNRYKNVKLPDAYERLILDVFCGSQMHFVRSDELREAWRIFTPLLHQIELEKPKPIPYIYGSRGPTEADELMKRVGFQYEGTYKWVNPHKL
T4 sequence (P63165 whole entry): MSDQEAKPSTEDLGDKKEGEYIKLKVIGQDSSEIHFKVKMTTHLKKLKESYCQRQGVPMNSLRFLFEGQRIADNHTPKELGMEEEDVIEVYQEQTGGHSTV

Cc1[nH]c2ccccc2c1/C=N/NC(=O)c1cccc(S(=O)(=O)Nc2ccccc2Cl)c1
IC50 [1]: > 80 µM (inactive)

CN(C)CC1CC/C(=C\c2ccc(O)cc2)C1=O (centres undefined)
AC50 [2]: 4.38 µM (active) | AC50 (A-375 [3]): > 35 µM (active) | GI50 (P388/ADR): 1.69 µM (inactive) | GI50 (P388): 0.491 µM (active) | GI50 (SN12K1): 1.78 µM (inactive) | AC50 [4]: 12.9 µM (active) | AC50 (A-375 [5]): > 35 µM (active)

Cc1cc(C)n(CC(=O)N2CCCC(C(=O)c3cccc(OC(C)C)c3)C2)n1 (centres undefined)
EC50 [6]: 14.1 µM (active)

Cc1ccc2nc(NC(=O)CCCC(=O)O)sc2c1
AC50 [7]: 1.42 µM (active) | IC50 (Jurkat): 0.8 µM (active) | AC50 [8]: 4.63 µM (active) | AC50 [9]: 1.02 µM (active) | IC50 [10]: > 80 µM (inactive) | AC50 [11]: 2.82 µM (active) | AC50 [12]: 44.1 µM (active) | AC50 [13]: 0.62 µM (active) | AC50 [4]: 12.1 µM (active)

O=C(Nc1ccc(C2=NCCN2)cc1)c1ccc(C(=O)Nc2ccc(C3=NCCN3)cc2)c([N+](=O)[O-])c1
IC50 [14]: 2.17 µM (active) | IC50 [15]: 33.1 µM (active) | IC50 [16]: 3.28 µM (active) | IC50 [17]: > 66.6 µM (inactive) | IC50 (Bcl-2-related protein A1): 4.88 µM (active) | IC50 [18]: 3.11 µM (active) | AC50 (Escherichia coli [19]): 243 µM (active)

CC(Oc1ccc(Cl)cc1)C(=O)NNC(=S)NC(=O)c1ccco1 (centres undefined)
CC50 (Vero [20]): > 25 µM (active) | CC50 [21]: > 20 µM (active) | IC50 (Vero [22]): > 25 µM (active) | CC50 [23]: 11.2 µM (active) | EC50 [24]: 5.31 µM (active) | CC50 [25]: 13.7 µM (active) | IC50 (cells): 9.22 µM (active) | AC50 [2]: 1.41 µM (active) | IC50 [26]: 34.9 µM (inactive) | EC50 (Streptococcus): 2.29 µM (active) | EC50 [27]: 0.571 µM (active)

COc1ccc(/C=C/c2cc(C(F)(F)F)on2)cc1
AC50 (A-375 [3]): > 35 µM (active) | AC50 (A-375 [5]): > 35 µM (active)

COc1cc(-c2noc(-c3ccccc3C(=O)NCc3ccco3)n2)cc(OC)c1OC
AC50 (Escherichia coli [28]): 40.5 µM (active) | AC50 (Escherichia coli [19]): 71.1 µM (active)

CC1=CC(C)(C)Nc2ccc(OC(=O)CN3C(=O)c4ccccc4C3=O)cc21
EC50 [29]: 9.51 µM (active) | CC50 [30]: 6.94 µM (active) | CC50 [23]: 13.6 µM (active) | CC50 [25]: 6.68 µM (active) | EC50 (HEK293 [31]): > 59.6 µM (inactive) | EC50 [32]: 5.85 µM (active) | IC50 [33]: 58.6 µM (inactive) | EC50 (HEK293 [34]): > 59.6 µM (inactive)

COc1ccc(NC(C)C(=O)N/N=C/c2cc(Br)ccc2OC)cc1 (centres undefined)
IC50 [1]: > 80 µM (inactive)
